Data as given in patent US20240092758A1, “IMIDAZOLO INDAZOLE COMPOUNDS AS JAK INHIBITORS” (Theravance Biopharma R&D IP, LLC, priority 2021, published 2024).

Columns and labels:
[1] = molecular target: JAK1 (Homo sapiens (Human), UniProt P23458); experiment: Biochemical JAK kinase assay (LanthaScreen), JAK1; details: for Ki: read-out: JAK1 pKi (converted)
In short: (§1)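 LanthaScreen format: phospho-STAT1 (pTyr701) detected with 2 nM Tb antibody after 10 mM EDTA quench. Kinase step used Km-level ATP and 200 nM STAT1 peptide, 1 h at ambient after 1 h pre-incubation. Inhibition fitted to IC50, reported as pKi.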

[2] = molecular target: JAK2 (Homo sapiens (Human), UniProt O60674); experiment: Biochemical JAK kinase assay (LanthaScreen), JAK2; details: for Ki: read-out: JAK2 pKi (converted)
In short: as §1

[3] = molecular target: JAK3 (Homo sapiens (Human), UniProt P52333); experiment: Biochemical JAK kinase assay (LanthaScreen), JAK3; details: read-out: JAK3 pKi (converted)
Experimental: A panel of four LanthaScreen JAK biochemical assays (JAK1, 2, 3 and Tyk2) were carried in a common kinase reaction buffer (50 mM HEPES, pH 7.5, 0.01% Brij-35, 10 mM MgCl2, and 1 mM EGTA). Recombinant GST-tagged JAK enzymes and a GFP-tagged STAT1 peptide substrate were obtained from Life Technologies.
Serially diluted compounds were pre-incubated with each of the four JAK enzymes and the substrate in white 384-well microplates (Corning) at ambient temperature for 1 h. ATP was subsequently added to initiate the kinase reactions in 10 μL total volume, with 1% DMSO. The final enzyme concentrations for JAK1, 2, 3 and Tyk2 are 4.2 nM, 0.1 nM, 1 nM, and 0.25 nM respectively; the corresponding Km ATP concentrations used are 25 μM, 3 μM, 1.6 μM, and 10 μM; while the substrate concentration is 200 nM for all four assays. Kinase reactions were allowed to proceed for 1 hour at ambient temperature before a 10 μL preparation of EDTA (10 mM final concentration) and Tb-anti-pSTAT1 (pTyr701) antibody (Life Technologies, 2 nM final concentration) in TR-FRET dilution buffer (Life Technologies) was added. The plates were allowed to incubate at ambient temperature for 1 h before being read on the EnVision reader (Perkin Elmer). Emission ratio signals (520 nm/495 nm) were recorded and utilized to calculate the percent inhibition values based on DMSO and background controls.
For dose-response analysis, percent inhibition data were plotted vs. compound concentrations, and IC50 values were determined from a 4-parameter robust fit model with the Prism software (GraphPad Software). Results were expressed as pIC50 (negative logarithm of IC50) and subsequently converted to pKi (negative logarithm of dissociation constant, Ki) using the Cheng-Prusoff equation.
Test compounds having a lower Ki value or higher pKi value in the four JAK assays show greater inhibition of JAK activity.

[4] = molecular target: TYK2 (Homo sapiens (Human), UniProt P29597); experiment: Biochemical JAK kinase assay (LanthaScreen), Tyk2; details: read-out: Tyk2 pKi (converted)
In short: as §1

[5] = test system: IL-13 induced STAT6 phosphorylation in BEAS-2B human lung epithelial cells; experiment: Cellular JAKI potency assay (BEAS-2B); format: cell-based; details: Homo sapiens, BEAS-2B, BEAS-2B cells, read-out: BEAS2B pIC50 (converted)
In short: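 BEAS-2B cells were preincubated with compound (0.1% DMSO) in HBSS/HEPES/BSA for 1 h at 37 °C, then stimulated with IL-13 (80 ng/mL before addition) for 30 min. After lysis, pSTAT6 (Tyr641) was quantified by AlphaLISA SureFire; IC50 from a 4-parameter fit of percent inhibition, reported as pIC50.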

Sequence of JAK1 (P23458 whole entry): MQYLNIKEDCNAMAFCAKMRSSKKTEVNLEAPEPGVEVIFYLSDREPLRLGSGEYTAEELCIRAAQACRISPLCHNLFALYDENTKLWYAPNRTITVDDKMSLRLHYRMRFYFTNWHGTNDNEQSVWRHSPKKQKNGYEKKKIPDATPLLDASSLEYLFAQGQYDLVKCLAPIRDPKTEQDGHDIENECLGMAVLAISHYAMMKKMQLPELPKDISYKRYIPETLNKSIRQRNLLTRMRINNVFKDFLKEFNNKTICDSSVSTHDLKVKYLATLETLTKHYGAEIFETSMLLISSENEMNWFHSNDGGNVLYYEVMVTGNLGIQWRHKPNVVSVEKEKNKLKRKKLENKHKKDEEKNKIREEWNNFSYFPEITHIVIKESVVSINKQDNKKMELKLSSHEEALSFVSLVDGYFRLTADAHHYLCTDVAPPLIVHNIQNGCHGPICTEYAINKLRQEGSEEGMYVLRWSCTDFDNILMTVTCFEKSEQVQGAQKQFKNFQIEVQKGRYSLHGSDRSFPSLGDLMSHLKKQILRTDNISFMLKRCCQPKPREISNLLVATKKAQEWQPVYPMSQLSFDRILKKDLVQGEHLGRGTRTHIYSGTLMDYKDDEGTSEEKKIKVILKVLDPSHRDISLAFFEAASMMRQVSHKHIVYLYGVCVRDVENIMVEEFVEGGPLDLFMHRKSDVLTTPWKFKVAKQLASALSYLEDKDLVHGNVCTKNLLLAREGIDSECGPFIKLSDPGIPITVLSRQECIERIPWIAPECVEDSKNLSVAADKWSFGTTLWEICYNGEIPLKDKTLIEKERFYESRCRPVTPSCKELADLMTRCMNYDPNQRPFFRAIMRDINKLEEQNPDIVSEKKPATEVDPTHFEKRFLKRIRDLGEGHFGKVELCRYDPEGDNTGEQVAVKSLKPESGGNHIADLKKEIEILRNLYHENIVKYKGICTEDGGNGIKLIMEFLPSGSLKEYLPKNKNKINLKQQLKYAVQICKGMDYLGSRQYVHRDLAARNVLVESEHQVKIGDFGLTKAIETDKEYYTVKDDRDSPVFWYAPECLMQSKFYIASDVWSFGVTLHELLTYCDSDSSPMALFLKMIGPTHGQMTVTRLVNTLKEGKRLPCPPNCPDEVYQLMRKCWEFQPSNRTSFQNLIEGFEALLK
Sequence of TYK2 (P29597 whole entry): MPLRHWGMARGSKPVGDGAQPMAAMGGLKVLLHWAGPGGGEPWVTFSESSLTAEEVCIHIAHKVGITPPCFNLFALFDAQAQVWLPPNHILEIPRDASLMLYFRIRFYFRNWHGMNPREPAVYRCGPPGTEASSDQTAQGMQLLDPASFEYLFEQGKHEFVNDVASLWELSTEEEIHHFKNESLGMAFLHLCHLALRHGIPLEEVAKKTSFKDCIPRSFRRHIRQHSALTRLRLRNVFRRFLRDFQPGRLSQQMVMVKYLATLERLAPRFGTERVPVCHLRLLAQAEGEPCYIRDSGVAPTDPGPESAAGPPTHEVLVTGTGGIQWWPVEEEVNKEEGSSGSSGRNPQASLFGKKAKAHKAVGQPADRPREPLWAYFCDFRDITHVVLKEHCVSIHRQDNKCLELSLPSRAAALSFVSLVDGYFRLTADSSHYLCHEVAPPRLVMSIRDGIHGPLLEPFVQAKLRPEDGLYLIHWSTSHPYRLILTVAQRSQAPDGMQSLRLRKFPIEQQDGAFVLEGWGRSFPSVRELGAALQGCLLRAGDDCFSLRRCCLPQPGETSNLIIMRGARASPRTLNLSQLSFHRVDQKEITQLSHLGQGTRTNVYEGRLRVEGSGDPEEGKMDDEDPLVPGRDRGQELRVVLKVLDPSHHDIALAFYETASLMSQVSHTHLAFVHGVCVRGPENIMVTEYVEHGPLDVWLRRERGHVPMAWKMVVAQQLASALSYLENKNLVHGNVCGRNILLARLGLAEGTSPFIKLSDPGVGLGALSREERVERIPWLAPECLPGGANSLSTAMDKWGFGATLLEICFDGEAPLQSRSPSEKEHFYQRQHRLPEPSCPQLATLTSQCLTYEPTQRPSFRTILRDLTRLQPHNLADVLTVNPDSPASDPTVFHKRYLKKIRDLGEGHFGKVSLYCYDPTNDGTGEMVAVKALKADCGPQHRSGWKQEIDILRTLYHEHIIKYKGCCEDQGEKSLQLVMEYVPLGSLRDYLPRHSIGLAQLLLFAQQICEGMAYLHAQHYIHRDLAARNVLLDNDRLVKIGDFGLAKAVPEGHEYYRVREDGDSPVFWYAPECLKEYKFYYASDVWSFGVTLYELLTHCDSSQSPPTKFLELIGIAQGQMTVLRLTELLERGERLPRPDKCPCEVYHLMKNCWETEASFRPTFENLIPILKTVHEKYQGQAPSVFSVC
Sequence of JAK2 (O60674 whole entry): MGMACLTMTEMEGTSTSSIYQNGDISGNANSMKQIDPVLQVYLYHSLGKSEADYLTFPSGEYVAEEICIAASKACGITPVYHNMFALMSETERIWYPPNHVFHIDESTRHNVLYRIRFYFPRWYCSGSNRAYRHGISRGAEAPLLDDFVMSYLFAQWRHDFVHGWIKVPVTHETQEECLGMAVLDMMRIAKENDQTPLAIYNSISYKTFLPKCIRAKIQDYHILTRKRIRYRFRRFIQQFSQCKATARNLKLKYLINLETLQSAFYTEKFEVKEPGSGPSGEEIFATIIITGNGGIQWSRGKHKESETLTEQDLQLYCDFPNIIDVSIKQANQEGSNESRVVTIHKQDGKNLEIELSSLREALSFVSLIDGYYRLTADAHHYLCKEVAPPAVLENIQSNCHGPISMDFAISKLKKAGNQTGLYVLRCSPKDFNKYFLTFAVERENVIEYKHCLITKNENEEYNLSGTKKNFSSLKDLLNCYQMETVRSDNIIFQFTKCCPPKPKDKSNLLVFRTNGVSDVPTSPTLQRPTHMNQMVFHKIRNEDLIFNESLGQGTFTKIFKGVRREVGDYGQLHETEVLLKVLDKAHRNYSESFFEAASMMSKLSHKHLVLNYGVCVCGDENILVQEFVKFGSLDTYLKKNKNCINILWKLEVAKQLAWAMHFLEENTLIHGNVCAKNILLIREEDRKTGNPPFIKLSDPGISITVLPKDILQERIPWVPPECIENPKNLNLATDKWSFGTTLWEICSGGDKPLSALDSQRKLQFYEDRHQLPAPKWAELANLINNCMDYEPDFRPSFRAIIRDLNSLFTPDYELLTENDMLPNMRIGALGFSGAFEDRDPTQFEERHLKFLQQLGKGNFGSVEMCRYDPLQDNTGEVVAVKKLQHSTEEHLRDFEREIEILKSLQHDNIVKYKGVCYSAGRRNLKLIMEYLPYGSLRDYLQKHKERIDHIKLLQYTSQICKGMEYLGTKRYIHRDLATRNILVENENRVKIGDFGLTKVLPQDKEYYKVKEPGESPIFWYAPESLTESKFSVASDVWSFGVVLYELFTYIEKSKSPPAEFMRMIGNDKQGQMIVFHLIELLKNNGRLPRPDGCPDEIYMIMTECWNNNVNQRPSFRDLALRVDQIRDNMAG
Sequence of JAK3 (P52333 whole entry): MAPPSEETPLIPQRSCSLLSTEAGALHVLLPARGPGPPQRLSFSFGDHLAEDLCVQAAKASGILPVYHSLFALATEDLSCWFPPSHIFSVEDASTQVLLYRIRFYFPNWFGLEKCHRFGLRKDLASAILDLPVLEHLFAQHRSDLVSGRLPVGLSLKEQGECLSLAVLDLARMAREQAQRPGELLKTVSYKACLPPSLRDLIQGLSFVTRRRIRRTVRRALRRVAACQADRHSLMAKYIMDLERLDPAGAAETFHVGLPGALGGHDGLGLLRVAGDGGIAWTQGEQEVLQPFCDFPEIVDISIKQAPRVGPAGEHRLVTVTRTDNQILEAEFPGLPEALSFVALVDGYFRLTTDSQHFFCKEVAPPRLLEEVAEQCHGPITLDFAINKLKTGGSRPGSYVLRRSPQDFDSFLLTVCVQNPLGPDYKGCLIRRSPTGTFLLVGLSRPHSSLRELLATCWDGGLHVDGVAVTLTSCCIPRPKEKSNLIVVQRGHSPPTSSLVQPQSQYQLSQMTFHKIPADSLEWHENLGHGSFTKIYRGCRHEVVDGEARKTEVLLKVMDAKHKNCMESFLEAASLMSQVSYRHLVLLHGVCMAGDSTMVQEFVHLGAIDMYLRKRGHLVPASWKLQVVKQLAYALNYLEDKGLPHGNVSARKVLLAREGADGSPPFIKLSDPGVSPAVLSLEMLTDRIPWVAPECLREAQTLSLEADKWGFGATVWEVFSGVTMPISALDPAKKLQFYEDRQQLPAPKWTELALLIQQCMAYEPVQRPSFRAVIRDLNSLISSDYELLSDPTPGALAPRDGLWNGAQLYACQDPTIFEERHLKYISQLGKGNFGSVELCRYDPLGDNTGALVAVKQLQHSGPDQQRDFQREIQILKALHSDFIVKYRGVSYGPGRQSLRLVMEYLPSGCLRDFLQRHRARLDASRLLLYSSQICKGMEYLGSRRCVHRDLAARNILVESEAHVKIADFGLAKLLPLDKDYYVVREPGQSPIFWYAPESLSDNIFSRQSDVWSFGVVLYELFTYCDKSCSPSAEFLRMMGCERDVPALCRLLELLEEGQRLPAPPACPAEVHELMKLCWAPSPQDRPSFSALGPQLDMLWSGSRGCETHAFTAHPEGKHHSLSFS

CCc1cc(O)ccc1-c1ccc2c(-c3nc(C4=CCN(CCN5CCOCC5)CC4)c[nH]3)n[nH]c2c1 [Example 184]
JAK1 pKi [1]: A (A represents a pKi value ≥10 (Ki≤0.1 nM)) | JAK2 pKi [2]: A (A represents a pKi value ≥10 (Ki≤0.1 nM)) | Ki [3]: 0.1 to 1 nM | Ki [4]: 1 to 10 nM | IC50 [5]: 3.16 to 10 nM

CCc1cc(O)ccc1-c1ccc2c(-c3nc(C4=CCN(C5CN(C)C5)CC4)c[nH]3)n[nH]c2c1F [Example 186]
Ki [1]: 0.1 to 1 nM | Ki [2]: 0.1 to 1 nM | Ki [3]: 0.1 to 1 nM | Ki [4]: 1 to 10 nM | IC50 [5]: 3.16 to 10 nM

CCc1cc(O)ccc1-c1ccc2c(-c3nc(C4=CCN(C[C@@H]5COCCN5)CC4)c[nH]3)n[nH]c2c1F [Example 189]
Ki [1]: 0.1 to 1 nM | Ki [2]: 0.1 to 1 nM | Ki [3]: 0.1 to 1 nM | Ki [4]: 1 to 10 nM | IC50 [5]: 10 to 31.6 nM

CCc1cc(O)ccc1-c1ccc2c(-c3nc(C4=CCN(CCN5CCOCC5)CC4)c[nH]3)n[nH]c2c1F [Example 191]
JAK1 pKi [1]: A (A represents a pKi value ≥10 (Ki≤0.1 nM)) | JAK2 pKi [2]: A (A represents a pKi value ≥10 (Ki≤0.1 nM)) | Ki [3]: 0.1 to 1 nM | Ki [4]: 1 to 10 nM | IC50 [5]: 10 to 31.6 nM

CCc1cc(O)ccc1-c1ccc2c(-c3nc(C4=CCCN(C5CCN(C)CC5)C4)c[nH]3)n[nH]c2c1F [Example 194]
Ki [1]: 0.1 to 1 nM | Ki [2]: 0.1 to 1 nM | Ki [3]: 0.1 to 1 nM | Ki [4]: 1 to 10 nM | IC50 [5]: 10 to 31.6 nM

CCc1cc(O)ccc1-c1ccc2c(-c3nc(C4=CCCN(C5CN(C)C5)C4)c[nH]3)n[nH]c2c1F [Example 195]
Ki [1]: 0.1 to 1 nM | Ki [2]: 0.1 to 1 nM | Ki [3]: 0.1 to 1 nM | Ki [4]: 1 to 10 nM | IC50 [5]: 31.6 to 100 nM

CCc1cc(O)ccc1-c1ccc2c(-c3nc(C4=CCCN(C[C@@H]5COCCN5)C4)c[nH]3)n[nH]c2c1F [Example 196]
Ki [1]: 1 to 10 nM | Ki [2]: 0.1 to 1 nM | Ki [3]: 0.1 to 1 nM | Ki [4]: 10 to 100 nM | IC50 [5]: 31.6 to 100 nM

CCc1cc(O)ccc1-c1ccc2c(-c3nc(C4=CCN(C5CCN(C)CC5)C4)c[nH]3)n[nH]c2c1 [Example 199]
JAK1 pKi [1]: A (A represents a pKi value ≥10 (Ki≤0.1 nM)) | JAK2 pKi [2]: A (A represents a pKi value ≥10 (Ki≤0.1 nM)) | Ki [3]: 0.1 to 1 nM | Ki [4]: 0.1 to 1 nM | IC50 [5]: 3.16 to 10 nM

CCc1cc(O)ccc1-c1ccc2c(-c3nc(C4=CCN(C[C@@H]5COCCN5)C4)c[nH]3)n[nH]c2c1F [Example 205]
Ki [1]: 0.1 to 1 nM | Ki [2]: 0.1 to 1 nM | Ki [3]: 0.1 to 1 nM | Ki [4]: 1 to 10 nM | IC50 [5]: 10 to 31.6 nM

CCc1cc(O)ccc1-c1ccc2c(-c3nc(C4=CCN(CCN5CCOCC5)C4)c[nH]3)n[nH]c2c1F [Example 206]
Ki [1]: 0.1 to 1 nM | JAK2 pKi [2]: A (A represents a pKi value ≥10 (Ki≤0.1 nM)) | Ki [3]: 0.1 to 1 nM | Ki [4]: 1 to 10 nM | IC50 [5]: 10 to 31.6 nM

CCc1cc(O)ccc1-c1ccc2c(-c3nc(C4=CCN(C5CCNC5)CC4)c[nH]3)n[nH]c2c1F (stereo not drawn) [Example 207]
Ki [1]: 0.1 to 1 nM | JAK2 pKi [2]: A (A represents a pKi value ≥10 (Ki≤0.1 nM)) | Ki [3]: 0.1 to 1 nM | Ki [4]: 1 to 10 nM | IC50 [5]: 100 to 316 nM

CCc1cc(O)ccc1-c1ccc2c(-c3nc(C4=CCN(C5CCN(C)C5)CC4)c[nH]3)n[nH]c2c1F (stereo not drawn) [Example 208]
Ki [1]: 0.1 to 1 nM | JAK2 pKi [2]: A (A represents a pKi value ≥10 (Ki≤0.1 nM)) | Ki [3]: 0.1 to 1 nM | Ki [4]: 1 to 10 nM | IC50 [5]: 10 to 31.6 nM

CCc1cc(O)ccc1-c1ccc2c(-c3nc(C4=CCN(CCN(C)C)CC4)c[nH]3)n[nH]c2c1F [Example 209]
Ki [1]: 0.1 to 1 nM | JAK2 pKi [2]: A (A represents a pKi value ≥10 (Ki≤0.1 nM)) | Ki [3]: 0.1 to 1 nM | Ki [4]: 1 to 10 nM | IC50 [5]: 10 to 31.6 nM

CCc1cc(O)ccc1-c1ccc2c(-c3nc(C4=CCN(C5CCCN(C)C5)CC4)c[nH]3)n[nH]c2c1F (stereo not drawn) [Example 212]
Ki [1]: 0.1 to 1 nM | JAK2 pKi [2]: A (A represents a pKi value ≥10 (Ki≤0.1 nM)) | Ki [3]: 0.1 to 1 nM | Ki [4]: 1 to 10 nM | IC50 [5]: 10 to 31.6 nM

CCc1cc(O)ccc1-c1ccc2c(-c3nc(C4=CCN(C(C)CN)CC4)c[nH]3)n[nH]c2c1F (stereo not drawn) [Example 213]
Ki [1]: 0.1 to 1 nM | Ki [2]: 0.1 to 1 nM | Ki [3]: 0.1 to 1 nM | Ki [4]: 10 to 100 nM | IC50 [5]: 100 to 316 nM

CCc1cc(O)ccc1-c1ccc2c(-c3nc(C4=CCCN(C5CCNC5)C4)c[nH]3)n[nH]c2c1F (stereo not drawn) [Example 214]
Ki [1]: 0.1 to 1 nM | JAK2 pKi [2]: A (A represents a pKi value ≥10 (Ki≤0.1 nM)) | Ki [3]: 0.1 to 1 nM | Ki [4]: 10 to 100 nM | IC50 [5]: 316 to 1000 nM

CCc1cc(O)ccc1-c1ccc2c(-c3nc(C4=CCCN(C5CCN(C)C5)C4)c[nH]3)n[nH]c2c1F (stereo not drawn) [Example 215]
Ki [1]: 1 to 10 nM | Ki [2]: 0.1 to 1 nM | Ki [3]: 0.1 to 1 nM | Ki [4]: 1 to 10 nM | IC50 [5]: 31.6 to 100 nM

CCc1cc(O)ccc1-c1ccc2c(-c3nc(C4=CCCN(C5CCCN(C)C5)C4)c[nH]3)n[nH]c2c1F (stereo not drawn) [Example 217]
Ki [1]: 1 to 10 nM | Ki [2]: 0.1 to 1 nM | Ki [3]: 0.1 to 1 nM | Ki [4]: 1 to 10 nM | IC50 [5]: 31.6 to 100 nM

CCc1cc(O)ccc1-c1ccc2c(-c3nc(C4=CCN(C5CCNC5)C4)c[nH]3)n[nH]c2c1F (stereo not drawn) [Example 218]
JAK1 pKi [1]: A (A represents a pKi value ≥10 (Ki≤0.1 nM)) | JAK2 pKi [2]: A (A represents a pKi value ≥10 (Ki≤0.1 nM)) | Ki [3]: 0.1 to 1 nM | Ki [4]: 1 to 10 nM | IC50 [5]: 31.6 to 100 nM

CCc1cc(O)ccc1-c1ccc2c(-c3nc(C4=CCN(C5CCN(C)C5)C4)c[nH]3)n[nH]c2c1F (stereo not drawn) [Example 219]
Ki [1]: 0.1 to 1 nM | JAK2 pKi [2]: A (A represents a pKi value ≥10 (Ki≤0.1 nM)) | Ki [3]: 0.1 to 1 nM | Ki [4]: 0.1 to 1 nM | IC50 [5]: 10 to 31.6 nM

CCc1cc(O)ccc1-c1ccc2c(-c3nc(C4=CCN(CCN(C)C)C4)c[nH]3)n[nH]c2c1F [Example 220]
Ki [1]: 0.1 to 1 nM | JAK2 pKi [2]: A (A represents a pKi value ≥10 (Ki≤0.1 nM)) | Ki [3]: 0.1 to 1 nM | Ki [4]: 1 to 10 nM | IC50 [5]: 10 to 31.6 nM

CCc1cc(O)ccc1-c1ccc2c(-c3nc(C4=CCN(C5CCCN(C)C5)C4)c[nH]3)n[nH]c2c1F (stereo not drawn) [Example 223]
Ki [1]: 0.1 to 1 nM | JAK2 pKi [2]: A (A represents a pKi value ≥10 (Ki≤0.1 nM)) | Ki [3]: 0.1 to 1 nM | Ki [4]: 1 to 10 nM | IC50 [5]: 10 to 31.6 nM

CCc1cc(O)ccc1-c1ccc2c(-c3nc(C4=C(C)CNCC4)c[nH]3)n[nH]c2c1 [Example 224]
Ki [1]: 0.1 to 1 nM | Ki [2]: 0.1 to 1 nM | Ki [3]: 0.1 to 1 nM | Ki [4]: 1 to 10 nM | IC50 [5]: 3.16 to 10 nM

CCc1cc(O)ccc1-c1ccc2c(-c3nc(C4=CC5CCCC(C4)N5)c[nH]3)n[nH]c2c1 (stereo not drawn) [Example 225]
Ki [1]: 0.1 to 1 nM | Ki [2]: 0.1 to 1 nM | Ki [3]: 0.1 to 1 nM | Ki [4]: 1 to 10 nM | IC50 [5]: 31.6 to 100 nM
